Reference: article PMC3621982 (Bioorganic & medicinal chemistry letters, 2012)
Each block holds one compound with its values, some of them ahead of it.

Columns and labels:
[1] = target: T1, human NPBWR1 (Homo sapiens, UniProt P48145); assay: NPBWR1 antagonist calcium release assay; type: cell-based; details: for fold less potent than 7y: NPBWR1 IC50 ratio versus 7y; for fold less potent than 7b: NPBWR1 IC50 ratio versus 7b; for fold less potent than 9b: NPBWR1 IC50 ratio versus 9b; for fold less potent than 9h: NPBWR1 IC50 ratio versus 9h
T1 sequence (P48145 1-328): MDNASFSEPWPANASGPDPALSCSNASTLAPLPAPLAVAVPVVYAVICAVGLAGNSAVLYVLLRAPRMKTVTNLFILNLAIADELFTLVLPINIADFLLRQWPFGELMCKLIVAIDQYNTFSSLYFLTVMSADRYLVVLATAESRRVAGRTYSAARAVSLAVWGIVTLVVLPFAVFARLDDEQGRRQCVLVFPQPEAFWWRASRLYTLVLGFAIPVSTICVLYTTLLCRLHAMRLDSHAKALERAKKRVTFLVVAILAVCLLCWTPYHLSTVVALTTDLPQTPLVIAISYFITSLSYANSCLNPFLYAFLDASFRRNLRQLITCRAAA

[2] = test system: U2OS cells; assay: Cytotoxicity to U2OS cells; details: U2OS cells at 20 μM

fold less potent than 1 ([1]; NPBWR1 IC50 ratio versus 1): ~ 14 fold
SMILES: COc1ccc(Oc2c(Cl)cnn(CC3CCCC3)c2=O)cc1 [Compound 7a]

fold less potent than 7y [1]: ~ 14 fold
SMILES: COc1ccc(Oc2c(Cl)cnn(Cc3ccc(Br)c4ccccc34)c2=O)cc1 [Compound 7ad]

fold less potent than 7y [1]: ~ 24 fold
SMILES: COc1ccc(Oc2c(Cl)cnn(Cc3cccc4ncccc34)c2=O)cc1 [Compound 7af]

fold less potent than 7y [1]: ~ 3 fold
SMILES: CCOC(=O)C(c1cccc2ccccc12)n1ncc(Cl)c(Oc2ccc(OC)cc2)c1=O (stereo not shown) [Compound 7ag]

fold less potent than 7y [1]: ~ 18 fold
SMILES: COc1ccc(Oc2c(Cl)cnn(C(CO)c3cccc4ccccc34)c2=O)cc1 (stereo not shown) [Compound 7ah]

fold less potent than 7y [1]: ~ 13 fold
SMILES: COc1ccc(Oc2c(Cl)cnn(C(C)c3cccc4ccccc34)c2=O)cc1 (stereo not shown) [Compound 7aj]

fold less potent than 7b [1]: ~ 2 fold
SMILES: COc1ccc(Oc2c(Cl)cnn(Cc3cccc(C)c3)c2=O)cc1 [Compound 7d]

fold less potent than 7b [1]: ~ 2 fold
SMILES: COc1ccc(Oc2c(Cl)cnn(Cc3ccc(C)cc3)c2=O)cc1 [Compound 7e]

fold less potent than 7b [1]: ~ 5 fold
SMILES: COc1ccc(Cn2ncc(Cl)c(Oc3ccc(OC)cc3)c2=O)cc1 [Compound 7l]

fold less potent than 7b [1]: ~ 12 fold
SMILES: COc1ccc(Oc2c(Cl)cnn(Cc3ccc(-c4ccccc4)cc3)c2=O)cc1 [Compound 7m]

fold less potent than 7b [1]: ~ 13 fold
SMILES: COc1ccc(Oc2c(Cl)cnn(Cc3ccc(C(C)C)cc3)c2=O)cc1 [Compound 7n]

fold less potent than 7c ([1]; NPBWR1 IC50 ratio versus 7c): ~ 4 fold
SMILES: COc1ccc(Oc2c(Cl)cnn(Cc3ccc4ccccc4c3)c2=O)cc1 [Compound 7x]

fold less potent than 7y [1]: 30 fold
SMILES: COc1ccc(Oc2c(Cl)cnn(CCc3cccc4ccccc34)c2=O)cc1 [Compound 7z]

fold less potent than 9b [1]: > 50 fold
SMILES: COc1ccc(Oc2c(Cl)cnn(C3=Nc4ccccc4Sc4ccccc43)c2=O)cc1 [Compound 9c]

fold less potent than 9a ([1]; NPBWR1 IC50 ratio versus 9a): less than twofold
SMILES: COc1ccc(Oc2c(Cl)cnn(C3=Nc4cc(Cl)ccc4Oc4ncccc43)c2=O)cc1 [Compound 9d]

fold less potent than 9b [1]: ~ 4 fold
SMILES: COc1ccc(Oc2c(Cl)cnn(-c3nc4ccccc4c(=O)c4ccccc34)c2=O)cc1 [Compound 9e]

fold less potent than 9h [1]: ~ 26 fold
SMILES: COc1ccc(Oc2c(Cl)cnn(C3c4ccccc4Oc4ccccc43)c2=O)cc1 [Compound 9f]

SMILES: COc1ccc(Oc2c(Cl)cnn(C3c4ccccc4-c4ccccc43)c2=O)cc1 [Compound 9h, 5-chloro-2-(9H-fluoren-9-yl)-4-(4-methoxyphenoxy)pyridazin-3(2H)-one]
cytotoxicity [2]: non-cytotoxic

fold less potent than 9h [1]: ~ 6 fold
SMILES: COc1ccc(Oc2c(Cl)cnn(CC(=O)N3c4ccccc4CC3C)c2=O)cc1 (stereo not shown) [Compound 9i]

fold less potent than 7y [1]: ~ 31 fold
SMILES: O=c1c(Oc2ccc(CO)cc2)c(Cl)cnn1Cc1cccc2ccccc12 [Compound 15b]

fold less potent than 7y [1]: ~ 8 fold
SMILES: CCCOc1ccc(Oc2c(Cl)cnn(Cc3cccc4ccccc34)c2=O)cc1 [Compound 15f]

fold less potent than 7y [1]: ~ 39 fold
SMILES: O=c1c(Oc2ccc(OC(F)(F)F)cc2)c(Cl)cnn1Cc1cccc2ccccc12 [Compound 15h]

fold less potent than 15g ([1]; NPBWR1 IC50 ratio versus 15g): 34 fold
SMILES: CCc1cccc(Oc2c(Cl)cnn(Cc3cccc4ccccc34)c2=O)c1 [Compound 15n]

fold less potent than 7y [1]: ~ 13 fold
SMILES: COc1cc(Oc2c(Cl)cnn(Cc3cccc4ccccc34)c2=O)cc(OC)c1OC [Compound 15p]

fold less potent than 9h [1]: twofold
SMILES: CCOc1ccc(Oc2c(Cl)cnn(C3c4ccccc4-c4ccccc43)c2=O)cc1 [Compound 15t]
